This assay has as its target T1, TRAP1 enzyme (Homo sapiens, UniProt Q12931).
T1 construct: 150 nM Trap1 enzyme was incubated with various concentrations of the test compound
T1 sequence (Q12931 60-704): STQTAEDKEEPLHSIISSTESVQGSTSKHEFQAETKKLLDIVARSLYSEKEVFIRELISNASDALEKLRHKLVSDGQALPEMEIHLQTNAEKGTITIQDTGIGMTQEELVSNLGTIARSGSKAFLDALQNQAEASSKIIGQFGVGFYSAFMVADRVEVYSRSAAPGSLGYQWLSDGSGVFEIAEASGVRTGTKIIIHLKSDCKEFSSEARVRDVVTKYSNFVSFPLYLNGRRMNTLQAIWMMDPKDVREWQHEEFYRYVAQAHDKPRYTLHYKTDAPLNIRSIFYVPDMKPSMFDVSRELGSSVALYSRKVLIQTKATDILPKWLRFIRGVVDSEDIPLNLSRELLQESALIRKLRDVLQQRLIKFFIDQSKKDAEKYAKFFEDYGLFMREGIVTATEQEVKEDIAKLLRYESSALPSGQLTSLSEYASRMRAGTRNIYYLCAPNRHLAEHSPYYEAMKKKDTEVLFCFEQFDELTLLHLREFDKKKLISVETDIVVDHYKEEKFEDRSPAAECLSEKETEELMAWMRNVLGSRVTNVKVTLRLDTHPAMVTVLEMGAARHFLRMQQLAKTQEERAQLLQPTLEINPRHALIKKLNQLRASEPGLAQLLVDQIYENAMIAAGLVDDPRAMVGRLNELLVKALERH
Kind of assay: ADP Glo assay of TRAP1 ATPase activity. The class given is biochemical. The settings on record: 1 h; compound concentration 50 μM; read-out: ADP-Glo Percent Activation at 50 μM. The method in brief: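 Compound (0.79–100 μM) was preincubated 30 min at 37° C with 150 nM TRAP1 in 25 mM Pipes pH 7.5, 40 mM KCl, 0.05 mM MgCl2. Reaction started with 20 μM ATP, 60 min at 37° C. ADP measured by luminescence against a standard curve; activation fitted sigmoidally for EC50 and Emax.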
(In general: ADP-Glo turns the ADP formed in a reaction into a luminescent signal.)

Here are results for 59 molecules from patent US20230159509A1 (Amathus Therapeutics, Inc., priority 2020, published 2023).

For the molecule `COc1ncc(NC(=O)c2cnc(C)s2)cc1S(=O)(=O)Nc1c(C)cccc1C` [compound 2661], the activation at 50 µM lay within 151 to 180%. As for `COc1ncc(NC(=O)c2ccc(OCC(F)(F)F)cc2)cc1S(=O)(=O)Nc1c(C)cccc1C` [compound 2662], the activation at 50 µM was 120 to 150%. To `COc1ncc(NC(=O)c2cc3n(n2)CCC3)cc1S(=O)(=O)Nc1c(C)cccc1C` [compound 2663] belongs 151 to 180%; to `COCCn1ccc(C(=O)Nc2cnc(OC)c(S(=O)(=O)Nc3c(C)cccc3C)c2)n1` [compound 2665], 120 to 150%; to `COc1ncc(NC(=O)c2ccn(C)c2)cc1S(=O)(=O)Nc1c(C)cccc1C` [compound 2666], 120 to 150%. Next, `COc1ncc(NC(=O)c2ncsc2C)cc1S(=O)(=O)Nc1c(C)cccc1C` [compound 2667]: 181 to 352%; `COc1ncc(NC(=O)c2cc(NC(C)=O)ccc2Cl)cc1S(=O)(=O)Nc1c(C)cccc1C` [compound 2669]: 151 to 180%; `COc1ncc(NC(=O)c2ccc(NC(C)=O)cc2C)cc1S(=O)(=O)Nc1c(C)cccc1C` [compound 2670]: 151 to 180%. To `COc1ncc(NC(=O)c2ccc(NC(=O)C3CC3)cc2)cc1S(=O)(=O)Nc1c(C)cccc1C` [compound 2671] belongs 120 to 150%; to `COc1ncc(NC(=O)c2ncn(C)c2C(F)(F)F)cc1S(=O)(=O)Nc1c(C)cccc1C` [compound 2672], 120 to 150%. Consider `COc1ncc(NC(=O)c2cnn3c2CCCC3)cc1S(=O)(=O)Nc1c(C)cccc1C` [compound 2673], for which the activation at 50 µM is 181 to 352%. To `COc1ncc(NC(=O)c2coc(N3CCOCC3)n2)cc1S(=O)(=O)Nc1c(C)cccc1C` [compound 2674] belongs 151 to 180%; to `CCOc1c(C(=O)Nc2cnc(OC)c(S(=O)(=O)Nc3c(C)cccc3C)c2)cnn1C` [compound 2675], 120 to 150%. `COc1ncc(NC(=O)c2ccc3c(c2)NC(=O)CC3)cc1S(=O)(=O)Nc1c(C)cccc1C` [compound 2677]: the activation at 50 µM was in the range of 120 to 150%. On to `COc1ncc(NC(=O)c2cnn(C)c2C(F)(F)F)cc1S(=O)(=O)Nc1c(C)cccc1C` [compound 2678], for which the activation at 50 µM fell in the range of 151 to 180%.

On to `COCCn1nccc1C(=O)Nc1cnc(OC)c(S(=O)(=O)Nc2c(C)cccc2C)c1` [compound 2679], for which the activation at 50 µM lay within 120 to 150%. Next, `COc1ncc(NC(=O)c2ccc(CNC(C)=O)cc2)cc1S(=O)(=O)Nc1c(C)cccc1C` [compound 2682]: 151 to 180%; `COc1ncc(NC(=O)c2csc(C(F)(F)F)c2)cc1S(=O)(=O)Nc1c(C)cccc1C` [compound 2683]: 120 to 150%; `COc1ncc(NC(=O)c2cnn(CC(F)(F)F)c2)cc1S(=O)(=O)Nc1c(C)cccc1C` [compound 2684]: 120 to 150%. To `COc1ncc(NC(=O)c2nsnc2Cl)cc1S(=O)(=O)Nc1c(C)cccc1C` [compound 2687] belongs 151 to 180%; to `COc1ncc(NC(=O)c2ccc(NC(C)=O)c(C)c2)cc1S(=O)(=O)Nc1c(C)cccc1C` [compound 2688], 151 to 180%.

In the case of `COc1ncc(NC(=O)c2cc(C(C)C)on2)cc1S(=O)(=O)Nc1c(C)cccc1C` [compound 2689], the activation at 50 µM lay within 181 to 352%. Next, `CCc1cc(C(=O)Nc2cnc(OC)c(S(=O)(=O)Nc3c(C)cccc3C)c2)no1` [compound 2690]: 151 to 180%. Consider `CCn1nc(C(=O)Nc2cnc(OC)c(S(=O)(=O)Nc3c(C)cccc3C)c2)cc1C` [compound 2691], for which the activation at 50 µM lay within 181 to 352%. As for `COc1ncc(NC(=O)c2nc(C)oc2C)cc1S(=O)(=O)Nc1c(C)cccc1C` [compound 2692], the activation at 50 µM lay within 120 to 150%.

In the case of `COc1ncc(NC(=O)c2onc3c2CCCC3)cc1S(=O)(=O)Nc1c(C)cccc1C` [compound 2693], the activation at 50 µM was in the range of 120 to 150%.

Take `COc1ncc(NC(=O)c2sccc2C(F)(F)F)cc1S(=O)(=O)Nc1c(C)cccc1C` [compound 2694]: the activation at 50 µM was in the range of 181 to 352%. For `COc1ncc(NC(=O)c2cc(C(F)(F)F)n[nH]2)cc1S(=O)(=O)Nc1c(C)cccc1C` [compound 2695], the activation at 50 µM lay in the range of 151 to 180%. Next, `COc1ncc(NC(=O)c2cccc(NC(C)=O)c2)cc1S(=O)(=O)Nc1c(C)cccc1C` [compound 2696]: 181 to 352%. In the case of `COc1ncc(NC(=O)c2coc(C(C)C)n2)cc1S(=O)(=O)Nc1c(C)cccc1C` [compound 2697], the activation at 50 µM is 181 to 352%. To `COc1ncc(NC(=O)c2ccc(NC(=O)C(C)(C)C)cc2)cc1S(=O)(=O)Nc1c(C)cccc1C` [compound 2699] belongs 151 to 180%. To `COc1ncc(NC(=O)c2cnn(C3CCCCC3)c2)cc1S(=O)(=O)Nc1c(C)cccc1C` [compound 2700] belongs 181 to 352%; to `COc1ncc(NC(=O)c2n[nH]c3c2CCC3)cc1S(=O)(=O)Nc1c(C)cccc1C` [compound 2701], 181 to 352%. Next, `COc1ncc(NC(=O)c2csnc2C)cc1S(=O)(=O)Nc1c(C)cccc1C` [compound 2703]: 120 to 150%; `COc1ncc(NC(=O)c2conc2C)cc1S(=O)(=O)Nc1c(C)cccc1C` [compound 2706]: 120 to 150%.

Turning to `COc1ncc(NC(=O)c2oncc2C)cc1S(=O)(=O)Nc1c(C)cccc1C` [compound 2708], the activation at 50 µM was 120 to 150%. To `COc1ncc(NC(=O)c2ccn[nH]2)cc1S(=O)(=O)Nc1c(C)cccc1C` [compound 2709] belongs 120 to 150%; to `COc1ncc(NC(=O)c2nn(C)c(C)c2Cl)cc1S(=O)(=O)Nc1c(C)cccc1C` [compound 2710], 181 to 352%. `CCc1oncc1C(=O)Nc1cnc(OC)c(S(=O)(=O)Nc2c(C)cccc2C)c1` [compound 2711]: the activation at 50 µM fell in the range of 120 to 150%. To `COc1ncc(NC(=O)c2ncco2)cc1S(=O)(=O)Nc1c(C)cccc1C` [compound 2712] belongs 120 to 150%; to `COc1ncc(NC(=O)c2cnn(C)c2C(F)F)cc1S(=O)(=O)Nc1c(C)cccc1C` [compound 2713], 181 to 352%; to `CCCc1nnsc1C(=O)Nc1cnc(OC)c(S(=O)(=O)Nc2c(C)cccc2C)c1` [compound 2714], 181 to 352%. To `COc1ncc(NC(=O)c2cccc(CN3CCN(C)CC3)c2)cc1S(=O)(=O)Nc1c(C)cccc1C` [compound 2715] belongs 120 to 150%; to `COc1ncc(NC(=O)c2cc(C)sn2)cc1S(=O)(=O)Nc1c(C)cccc1C` [compound 2716], 181 to 352%. Next, `COc1ncc(NC(=O)c2ncoc2C)cc1S(=O)(=O)Nc1c(C)cccc1C` [compound 2718]: 151 to 180%. With `COc1ncc(NC(=O)c2cccc3c2C(=O)NC3)cc1S(=O)(=O)Nc1c(C)cccc1C` [compound 2719], the activation at 50 µM is 151 to 180%.

Take `COc1ncc(NC(=O)c2snnc2C2CC2)cc1S(=O)(=O)Nc1c(C)cccc1C` [compound 2720]: the activation at 50 µM fell in the range of 181 to 352%. To `COc1ncc(NC(=O)c2cn[nH]c2C)cc1S(=O)(=O)Nc1c(C)cccc1C` [compound 2724] belongs 120 to 150%.

As to `COc1ncc(NC(=O)c2noc3c2CCCC3)cc1S(=O)(=O)Nc1c(C)cccc1C` [compound 2725], the activation at 50 µM lay in the range of 181 to 352%. Next, `CCCc1onc(C)c1C(=O)Nc1cnc(OC)c(S(=O)(=O)Nc2c(C)cccc2C)c1` [compound 2726]: 181 to 352%. To `COc1ncc(NC(=O)c2ccc3c(c2)NC(=O)C3)cc1S(=O)(=O)Nc1c(C)cccc1C` [compound 2727] belongs 181 to 352%; to `COc1ncc(NC(=O)c2ccnc(N3CCCCC3)c2)cc1S(=O)(=O)Nc1c(C)cccc1C` [compound 2729], 181 to 352%; to `COc1ncc(NC(=O)c2cc(Cl)n[nH]2)cc1S(=O)(=O)Nc1c(C)cccc1C` [compound 2730], 181 to 352%. Next, `COc1ncc(NC(=O)c2[nH]cnc2C)cc1S(=O)(=O)Nc1c(C)cccc1C` [compound 2731]: 120 to 150%; `COc1ncc(NC(=O)c2cc3[nH]c(=O)[nH]c(=O)n3c2)cc1S(=O)(=O)Nc1c(C)cccc1C` [compound 2732]: 151 to 180%. Consider `COc1ncc(NC(=O)c2ocnc2C)cc1S(=O)(=O)Nc1c(C)cccc1C` [compound 2733], for which the activation at 50 µM fell in the range of 151 to 180%.

Consider `COc1ncc(NC(=O)c2nnsc2C(C)C)cc1S(=O)(=O)Nc1c(C)cccc1C` [compound 2734], for which the activation at 50 µM lay in the range of 181 to 352%. To `COc1ncc(NC(=O)c2cc[nH]c3nccc2-3)cc1S(=O)(=O)Nc1c(C)cccc1C` [compound 2735] belongs 181 to 352%; to `COc1ncc(NC(=O)c2n[nH]c3c2CCCC3)cc1S(=O)(=O)Nc1c(C)cccc1C` [compound 2736], 181 to 352%.
